This is an account of results in US10864211B2, “Hydroxy isoxazole compounds useful as GPR120 agonists” (Merck Sharp & Dohme Corp., priority 2016, dated 2020).

Where a name gives a salt, the structure may show the parent alone.

The experiment has as its target T1, human GPR120 (Homo sapiens, UniProt Q5NUL3).
T1 construct: expressed in transfected cells; host or cells: CHO-K1
T1 sequence (Q5NUL3 1-361): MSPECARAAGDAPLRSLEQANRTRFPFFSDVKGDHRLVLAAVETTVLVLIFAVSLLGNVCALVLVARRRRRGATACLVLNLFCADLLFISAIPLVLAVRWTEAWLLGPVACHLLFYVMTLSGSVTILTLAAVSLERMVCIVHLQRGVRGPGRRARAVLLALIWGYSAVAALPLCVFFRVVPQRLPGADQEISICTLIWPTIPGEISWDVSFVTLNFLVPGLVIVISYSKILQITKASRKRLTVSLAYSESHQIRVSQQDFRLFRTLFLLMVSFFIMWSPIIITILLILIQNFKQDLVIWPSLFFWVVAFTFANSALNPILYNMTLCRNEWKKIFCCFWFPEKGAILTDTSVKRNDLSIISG
The experiment in a line: Human GPR120 IP1 assay (inositol phosphate turnover). It counts as cell-based. To be noted: IP1 accumulation in CHO-K1 cells stably expressing the short form of human GPR120. The text has this:
The binding of small molecule agonists to the G-protein-coupled receptor GPR120 activates phospholipase C, and leads to the generation of inositol 1,4,5-trisphosphate (InsP3 or IP3). IP3 is subsequently de-phosphorylated to IP1, which accumulates in cells and is stable in the presence of lithium chloride.
In the present method, agonist-induced activation of the human and rat GPR120 receptor was monitored by measuring the accumulation of IP1 in CHO-K1 cells that were stably expressing the short form of human GPR120 (Accession #NM_001195755) or HEK293 cells stably expressing rat GPR120 (Accession #NM_001047088). Following agonist addition, GPR120 activation and subsequent accumulation of IP1 was measured using a homogeneous Time Resolved Fluorescence-based ELISA commercially available from CisBio (IP-one ELISA Kit). The IP-One ELISA was a competitive immunoassay which uses IP1 labeled with […] and a terbium cryptate-labeled anti-IP1 monoclonal antibody. […] The signal loss was then back calculated to IP1 concentration using an IP1 standard curve. Determination of IP1 concentration was a direct measure of GPR120 activation and was used to determine compound potency (EC50).
Human GPR120 stable cell-lines were generated in CHO cells. The expression plasmids were transfected using lipofectamine (Life Technologies) following manufacturer's instructions. Stable cell-lines were generated following drug selection and single cell cloning. Rat GPR120 stable cell-lines were generated in HEK cells using the Jump-In™ cell engineering platform (Life Technologies) following manufacturer's instructions. Stable cell-lines were generated following drug selection and single cell cloning.
The assay was performed in 384-well format. CHO cells stably expressing human GPR120 were plated at 20,000 cells per well in growth medium (DMEM/F12, 10% fetal calf serum). HEK293 cells stably expressing rat GPR120 were plated at […] per well in growth medium (DMEM, 10% fetal calf serum). Cell plates were then incubated 16 hours at 37 degrees in a 5% CO2 incubator. Measurement of Inositol Phosphate Turnover (IP1) was performed using the CisBio IP-One kit (Part number 62IPAPEB). After the 16 hour incubation, the growth media was removed by centrifugation using the BlueWasher (AusWasher GUI Ver. v1.0.1.8) Protocol #21-“Light Dry” and 10 μl of stimulation buffer (prepared as described in the kit) was added to each well. In a separate plate, compounds were diluted in DMSO (200-fold over the final concentration in the assay well) and 50 nl was acoustically transferred to the appropriate well in the assay cell plate. The plates were then incubated for 60 minutes at 37 degrees in a 5% CO2 incubator. 10 μl of detection buffer (also prepared as described in the IP-One kit) was added to each well and the plates were incubated at room temperature for 60 minutes in the dark. The plates were then read in a Perkin ElmerEnVision or equivalent reader able to measure FRET. Fluorescent ratio of emission at 665 and 620 nm was then converted to the IP1 concentration by back calculating from an IP1 standard curve prepared at the time of the assay. The data was normalized to % activity using a reference compound, and the EC50 values were determined using a standard 4-parameter fit.

As to `CCc1ccc([C@H]2C[C@@H](Oc3ccc(-c4onc(O)c4F)cn3)C2)cc1` [Example 13, ammonium 5-(6-{[cis-3-(4-ethylphenyl)cyclobuty]oxy}pyridin-3-yl)-4-fluoroisoxazol-3-olate], a half-maximal effect (EC50) was put at 0.181 µM.

`CCc1ccc([C@H]2C[C@@H](Oc3ccc(-c4cc(O)no4)cn3)C2)cc1` [Example 14, 5-(6-{[cis-3-(4-ethylphenyl)-cyclobutyl]oxy}pyridin-3-yl)isoxazol-3-ol] gave an EC50 of 0.019 µM. Then `Oc1cc(-c2ccc(OC3CC(c4ccc(C5CC5)cc4)C3)nc2)on1` (stereo not drawn) [Example 15, 5-(6-{[3-(4-cyclo-propyl-phenyl)cyclobutyl]oxy}pyridin-3-yl)isoxazol-3-ol], with 0.041 µM; and `Oc1cc(-c2cnc(O[C@H]3C[C@@H](c4ccc(-c5cnco5)cc4)C3)cn2)on1` [Example 16, 5-[5-({cis-3-[4-(1,3-oxazol-5-yl)phenyl]cyclobutyl}oxy)pyrazin-2-yl]isoxazol-3-ol], with 0.064 µM; and `Oc1cc(-c2cnc(O[C@H]3C[C@@H](c4ccc(-c5cc(F)ccn5)cc4)C3)cn2)on1` [Example 17, ammonium 5-[5-({cis-3-[4-(4-fluoropyridin-2-yl)phenyl]cyclobutyl}oxy)pyrazin-2-yl]isoxazol-3-olate], with 0.086 µM.

On to `Oc1cc(-c2cnc(O[C@H]3C[C@@H](c4ccc(-c5ccc(C(F)(F)F)nc5)cc4)C3)cn2)on1` [Example 18, 5-{5-[(cis-3-{4-[6-(trifluoromethyl)pyridin-3-yl]phenyl}cyclobutyl)oxy]pyrazin-2-yl}isoxazol-3-ol], for which the response was half-maximal at 0.134 µM (EC50). Then `Oc1cc(-c2cnc(O[C@H]3C[C@@H](c4cccc(-c5cnco5)c4)C3)cn2)on1` [Example 19, ammonium 5-[5-({cis-3-[3-(1,3-oxazol-5-yl)phenyl]-cyclobutyl}oxy)pyrazin-2-yl]isoxazol-3-olate], with 0.075 µM; and `Oc1cc(-c2cnc(O[C@H]3C[C@@H](c4ccc(C5CC5)cc4)C3)cn2)on1` [Example 20, ammonium 5-(5-{[cis-3-(4-cyclopropylphenyl)cyclobutyl]oxy}pyrazin-2-yl)isoxazol-3-olate], with 0.042 µM. Then `Oc1cc(-c2ccc(O[C@H]3C[C@@H](c4ccnc(C(F)(F)F)c4)C3)nc2)on1` [Example 21, 5-(3-hydroxyisoxazol-5-yl)-2-({cis-3-[2-(trifluoromethyl)-pyridin-4-yl]cyclobutyl}-oxy)pyridinium chloride], with 0.254 µM; and `CCOc1ccc([C@H]2C[C@@H](Oc3ccc(-c4cc(O)no4)cn3)C2)cn1` [Example 22, 2-ethoxy-5-(cis-3-{[5-(3-hydroxyisoxazol-5-yl)pyridin-2-yl]oxy}cyclobutyl)-pyridinium chloride], with 0.092 µM; and `Oc1cc(-c2ccc(O[C@H]3C[C@@H](c4ccc(C(F)(F)F)cn4)C3)nc2)on1` [Example 24, 5-[6-({cis-3-[5-(trifloromethyl)pyridin-2-yl]cyclobutyl}oxy)pyridin-3-yl]isoxazol-3-ol], with 0.019 µM. Take `Oc1cc(-c2cnc(O[C@H]3C[C@@H](c4ccc(C(F)(F)F)cn4)C3)cn2)on1` [Example 25, 5-[5-({cis-3-[5-(trifluoromethyl)pyridin-2-yl]cyclobutyl}oxy)pyrazin-2-yl]isoxazol-3-ol]: it took 0.046 µM to reach a half-maximal effect (EC50).

`Oc1cc(-c2cnc(O[C@H]3C[C@@H](c4ccc(OC(F)(F)F)cn4)C3)cn2)on1` [Example 26, 5-[5-({cis-3-[5-(trifluoromethoxy)pyridin-2-yl]cyclobutyl}oxy)pyrazin-2-yl]isoxazol-3-ol] gave an EC50 of 0.086 µM.

For the compound `CCOc1cc([C@H]2C[C@H](Oc3cnc(-c4cc(O)no4)cn3)C2)ccn1` [Example 27, sodium 5-(5-{[trans-3-(2-ethoxypyridin-4-yl)cyclobutyl]oxy}pyrazin-2-yl)isoxazol-3-olate], the concentration giving a half-maximal response (EC50) amounted to 0.177 µM. Next, `Oc1cc(-c2cnc(O[C@H]3C[C@H](c4ccc(C5CC(F)(F)C5)cc4)C3)cn2)on1` [Example 29, 5-[5-({trans-3-[4-(3,3-difluorocyclobutyl)phenyl]cyclobutyl}oxy)pyrazin-2-yl]isoxazol-3-ol]: 0.171 µM; `Oc1cc(-c2cnc(O[C@H]3C[C@@H](c4ccc(C5CC(F)(F)C5)cc4)C3)cn2)on1` [Example 30, 5-[5-({cis-3-[4-(3,3-difluorocyclobutyl)phenyl]cyclobutyl}oxy)pyrazin-2-yl)isoxazol-3-ol]: 0.155 µM. Turning to `Oc1cc(-c2ccc(O[C@H]3C[C@H](c4ccnc(OC5CC5)c4)C3)nc2)on1` [Example 31, sodium 5-[6-({trans-3-[2-(cyclopropyloxy)pyridin-4-yl]cyclobutyl}oxy)pyridin-3-yl]isoxazol-3-olate], the EC50 was determined as 0.062 µM. Next, `Oc1cc(-c2ccc(O[C@H]3C[C@@H](c4ccnc(OC5CC5)c4)C3)nc2)on1` [Example 32, 5-[6-({cis-3-[2-(cyclopropyloxy)pyridin-4-yl]cyclobutyl}oxy)pyridin-3-yl]isoxazol-3-ol]: 0.016 µM. `Oc1cc(-c2cnc(O[C@H]3C[C@H](c4ccnc(OC5CC5)c4)C3)cn2)on1` [Example 33, sodium 5-[5-({trans-3-[2-(cyclopropyloxy)pyridin-4-yl]cyclobutyl}oxy)pyrazin-2-yl]isoxazol-3-olate]: the EC50 is 0.32 µM.

Consider `Oc1cc(-c2cnc(O[C@H]3C[C@@H](c4ccnc(OC5CC5)c4)C3)cn2)on1` [Example 34, 5-[5-({cis-3-[2-(cyclopropyloxy)pyridin-4-yl]cyclobutyl}oxy)pyrazin-2-yl]isoxazol-3-ol], for which the midpoint of the response, the EC50, lay at 0.025 µM. Next, `Oc1cc(-c2ccc(OC3CC(c4ccc(F)cc4)C3)nc2)on1` (stereo not drawn) [Example 35, 5-(6-{[3-(4-fluorophenyl)cyclobutyl]oxy}pyridin-3-yl)isoxazol-3-ol trifluoroacetate]: 0.01 µM; `Oc1cc(-c2ccc(OC3CC(c4ccccc4)C3)nc2)on1` (stereo not drawn) [Example 36, 5-{6-[(3-phenylcyclobutyl)oxy]pyridin-3-yl}isoxazol-3-ol trifluoroacetate]: 0.041 µM; `Oc1cc(-c2ccc(O[C@H]3C[C@@H](C4CCCCC4)C3)nc2)on1` [Example 37, 2-[(cis-3-cyclohexylcyclobutyl)oxy]-5-(3-hydroxyisoxazol-5-yl)pyridinium chloride]: 0.161 µM. The compound `Oc1cc(-c2cnc(O[C@H]3C[C@@H](c4ccc(Cl)cc4)C3)cn2)on1` [Example 38, sodium 5-(5-{[cis-3-(4-chlorophenyl)cyclobutyl]oxy}pyrazin-2-yl)isoxazol-3-olate] registered an EC50 of 0.017 µM. Consider `Oc1cc(-c2cnc(O[C@H]3C[C@@H](c4cc(OC5CC5)ccc4F)C3)cn2)on1` [Example 39, 5-[5-({cis-3-[5-(cyclopropyloxy)-2-fluorophenyl]cyclobutyl}oxy)pyrazin-2-yl]isoxazol-3-ol], for which the EC50 came out at 0.048 µM. `Oc1cc(-c2cnc(O[C@H]3C[C@@H](c4ccc5c(c4)OC(F)(F)O5)C3)cn2)on1` [Example 40, 5-(5-{[cis-3-(2,2-difluoro-1,3-benzodioxol-5-yl)cyclobutyl]oxy}pyrazin-2-yl)isoxazol-3-ol] returned an EC50 of 0.016 µM. Compound `Oc1cc(-c2cnc(O[C@H]3C[C@@H](c4cccc(OC(F)F)c4F)C3)cn2)on1` [Example 41, 5-[5-({cis-3-[3-(difluoromethoxy)-2-fluorophenyl]cyclobutyl}oxy)pyrazin-2-yl]isoxazol-3-ol] came in with an EC50 of 0.017 µM.
